Test results published in ChEMBL document CHEMBL3351607, “Derivatives of imidazotriazine and pyrrolotriazine C-nucleosides as potential new anti-HCV agents” (Bioorg Med Chem Lett, 2014).

Key:
[1] = Cytotoxicity against human HuH7 cells; format: cell-based, Huh-7
Hepatitis C virus = experiment: Antiviral activity against Hepatitis C virus genotype 1b in human HuH7 cells assessed as inhibition of viral replication after 72 hrs by luciferase reporter assay; format: functional, cell-based, Hepacivirus hominis; conditions: Huh-7, 72 h
[2] = Therapeutic index, ratio of CC50 for human HuH7 cells to EC50 for Hepatitis C virus genotype 1b in human HuH7 cells; format: cell-based, Huh-7; conditions: read-out: Ratio CC50/EC50

SMILES | EC50 (Hepatitis C virus) [µM] | CC50 [1] [µM] | selectivity ratio [2]
C[C@@]1(O)[C@H](O)[C@@H](CO)O[C@H]1c1cnc2c(N)ncnn12 |  | 26 | 
C[C@@]1(O)[C@H](O)[C@@H](CO)O[C@H]1c1ccc2c(N)ncnn12 |  | > 100 | 
C[C@@]1(O)[C@H](O)[C@@H](CO)O[C@H]1c1cc(F)c2c(N)ncnn12 | 3.1 | > 100 | > 30
C[C@@]1(O)[C@H](O)[C@@H](CO)O[C@H]1c1cc(-c2ncco2)c2c(N)ncnn12 | 1.8 | 35.7 | 
C[C@@]1(O)[C@H](O)[C@@H](CO)O[C@H]1c1c(F)cc2c(N)ncnn12 | > 50 | > 100 | 
C[C@@]1(O)[C@H](O)[C@@H](CO)O[C@H]1c1ccc2c(N)nc(N)nn12 | > 50 | > 100 | 
C[C@@]1(O)[C@H](O)[C@@H](CO)O[C@H]1c1cnc2c(N)nc(Cl)nn12 | > 50 | > 100 | 
C[C@@]1(O)[C@H](O)[C@@H](CO)O[C@H]1c1cnc2c(N)nc(F)nn12 | > 50 | > 100 | 
C[C@@]1(O)[C@H](O)[C@@H](CO)O[C@H]1c1cnc2c(N)nc(N)nn12 | > 50 | > 100 | 

Now from value to molecule, other results behind:

EC50 (Hepatitis C virus) [µM] | SMILES | CC50 [1] [µM] | selectivity ratio [2]
0.26 | C[C@@]1(O)[C@H](O)[C@@H](CO)O[C@H]1c1cc(Cl)c2c(N)ncnn12 | 6.5 | 
0.99 | C[C@@]1(O)[C@H](O)[C@@H](CO)O[C@H]1c1cc(C#N)c2c(N)ncnn12 | 22.1 | 
0.0062 | C[C@@]1(O)[C@H](O)[C@@H](CO)O[C@H]1c1cc(C(N)=O)c2c(N)ncnn12 | 0.37 | 
0.17 | C#Cc1cc([C@@H]2O[C@H](CO)[C@@H](O)[C@@]2(C)O)n2ncnc(N)c12 | 0.93 | 
0.69 | C[C@@]1(O)[C@H](O)[C@@H](CO)O[C@H]1c1cc(-c2ncc[nH]2)c2c(N)ncnn12 | 27.1 | 
